According to patent US20150183721A1, “AMINO-ALCOHOL ANALOGUES AND USES THEREOF” (YISSUM RESEARCH DEVELOPMENT COMPANY OF THE HEBREW …, priority 2009, published 2015):
“Also recorded” adds a separate entry of the source. Like-named read-outs stand apart in the source and are kept apart here.

Assays:
[1] = test system: HT-29 (Human colon adenocarcinoma grade II); assay: Cytotoxicity test, IC50 determination by MTT test; assay type: cell-based; details: 24 hr incubation, 20000 cells/well, 10% serum, read-out: IC50 ± SD (MTT-Test), HT-29
Description: (§1) Cytotoxicity Tests (IC50 Determination by MTT test)
(§2) The cytotoxicity of the compounds of the invention A1-A12 was tested in comparison to cis-Pt in four cancer cell-lines: […]
(§3) HT-29 (Human colon adenocarcinoma grade II) by MTT test after an incubation of 24 hours.
(§4) Culture Medium Preparation for Attached Cell-lines: A2780, A2780cisR, CRL-5803, HT-29. • Medium RPMI-1640: 86% • Serum (FCS-fatal calf serum/FBS-fatal bovine serum): 10% • L-Glutamine: 1% • Antibiotics-penicillin-streptomycin(P/S): 1% • Na pyruvate: 1% • HEPES: 1%

[2] = test system: CRL-5803 (non-small cell lung carcinoma cell line); assay: Cytotoxicity test, IC50 determination by MTT test; assay type: cell-based; details: 24 hr incubation, 20000 cells/well, 10% serum, read-out: IC50 ± SD (MTT-Test), CRL5803
Description: as §1, §2
(§5) CRL-5803 (non-small cell lung carcinoma cell line), and
as §3, §4

[3] = test system: SPM formation in A2780 cells; assay: Enzymatic assay in cells: formation of fluorescent SPM from Bodipy-12-CER (SMS inhibition), HPLC; assay type: cell-based; details: 72 hr incubation in total, related to the control
Description: (§6) Enzymatic Assay in Cells (SMS, GCS and CDase Enzyme inhibition Studies) • Plate 10,000 cells in 0.5 ml culture media per well in a 48 well plate. • Incubate (37° C., 5% CO2) overnight to allow the cells to attach to the wells. • Add 10 μl of the fluorescent reagent BodiPy-12-Cer 0.5 μM/well. • After 48 hr incubation with the BodiPy-12-Cer, add 10 μl of the drug of interest dissolved in DMSO/Ethanol/solutol to each well. • Incubate (37° C., 5% CO2) for another 24 hr. • Remove the media. • Wash each well with 200 μl PBS. • Add 2000 trypsin allow sitting for 5 minutes in incubator. • Neutralize Trypsin with culture medium (complete to 1 ml) • Add suspension to 1.5 ml ephendorf. • Centrifuge for 5 minutes at 1200 rpm then remove the media. • Extract the cells with 1 ml of 1:2 CH2Cl2:MeOH by strong vortex stirring followed by centrifuge for 5 minutes at 13400 rpm. Then add the extraction into 2 ml ephendorf. • Extract the cells again with the same procedure with 1 ml of 1:1 CH2Cl2:MeOH. • Remove the solvent. • Add 2000 ethanol into the 2 ml ephendorf, do strong vortex stirring followed by centrifuge for 5 minutes at 13400 rpm. • Take 150 μl of the above sample and inject to the HPLC to quantify the relative metabolite relatively to control samples. • HPLC method conditions are:
(§7) Conditions: RP-8 Column, EX. λ 505 nm, EM. λ 530 nm
(§8) A fluorescent procedure was utilized in order to study the enzymatic inhibition of glucosylceramide synthase (GCS), ceramidases (CDase) and sphingomyelin synthase (SMS) enzymes, which can shed some light on a possible mechanism for ceramide accumulation and apoptosis. The fluorescent procedure was based on a 48-hr incubation of cancer cells with the fluorescent substrate, Bodipy (4,4-difluoro-4-bora-3a,4a-diaza-s-indacene), conjugated ceramide (Bodipy-12-CER) followed by another 24-hr period of incubation in the presence of nontoxic concentrations of compounds of the invention (72 hr incubation in total). After a predetermine incubation period, cells were washed, their lipids were extracted and the various lipids containing fluorescent fatty acid-ceramide, SPM and GC were quantified by HPLC.

[4] = test system: SPM formation in A2780cisR cells; assay: as above; assay type: cell-based; details: 72 hr incubation in total, related to the control
Description: as §6, §7, §8

[5] = test system: A2780cisR (ovarian carcinoma-cisPt resistance cell line); assay: Cytotoxicity test, IC50 determination by MTT test; assay type: cell-based; details: 24 hr incubation, 20000 cells/well, 10% serum, read-out: IC50 ± SD (MTT-Test), A2780cisR
Description: as §1, §2
A2780cisR (ovarian carcinoma-cisPt resistance cell line), […]
as §3, §4

[6] = Solubility of compounds in DMSO, ethanol and Solutol-HS15 (20 mM stock solutions); assay type: physicochemical
Description: General Procedure for the Solutol Emulsions Preparation
The amino-alcohol compound of the invention (4 μmol) was mixed with Solutol HS15 (6.0 mg) and heated to 70-80° C. Hot water (1 ml) was added to the mixture and stirred thoroughly. Thickening occurs initially due to hydration and reaches a maximum when half of the water has been added. The viscosity decreases as more water is added.
The solubility of compounds of the invention in ethanol and DMSO was tested in order to study their cytotoxicity.

Caspase-3 = assay: Apoptosis determination by Caspase-3 assay (EnzCheck Caspase-3 Assay Kit #2); assay type: cell-based; details: 8 hr incubation
Description: Apoptosis Determination by Caspase-3 Assay
The assay was done according to the protocol of EnzCheck Caspase-3 Assay Kit #2 (Invitrogen) [Ref: 4].
Caspase-3 was checked using invitrogene protocol. 8 hr incubation was done.

[7] = test system: A2780 (ovarian carcinoma cell line); assay: Cytotoxicity test, IC50 determination by MTT test; assay type: cell-based; details: 24 hr incubation, 20000 cells/well, 10% serum, read-out: IC50 ± SD (MTT-Test), A2780
Description: as §1
(§9) The cytotoxicity of the compounds of the invention A1-A12 was tested in comparison to cis-Pt in four cancer cell-lines:
A2780 (ovarian carcinoma cell line), […]
as §3, §4

[8] = test system: SPM formation in CRL5803 cells; assay: Enzymatic assay in cells: formation of fluorescent SPM from Bodipy-12-CER (SMS inhibition), HPLC; assay type: cell-based; details: nontoxic concentrations (A2: 4, 6, 8, 12 μM/well; A10: 0.5, 1, 2, 4 μM/well), 72 hr
Description: as §6, §7, §8

[9] = test system: A2780, A2780cisR, CRL-5803, HT-29; assay: Cytotoxicity (MTT), overall statements on the four cancer cell-lines; assay type: cell-based; details: 24 hr, compared to cis-Pt
Description: as §1, §9
A2780 (ovarian carcinoma cell line),
A2780cisR (ovarian carcinoma-cisPt resistance cell line),
as §5, §3, §4

[10] = test system: SPM formation in HT-29 cells; assay: Enzymatic assay in cells: formation of fluorescent SPM from Bodipy-12-CER (SMS inhibition), HPLC; assay type: cell-based, Human; details: nontoxic concentrations (A2: 4, 6, 8, 12 μM/well; A10: 0.5, 1, 2, 4 μM/well), 72 hr
Description: as §6
Conditions: RP-8 Column, EX. λ 505 nm, EM. λ 530 nm […]

[11] = Homo sapiens, HT-29, solutol solutions
[12] = Homo sapiens, A2780cisR, solutol solutions
[13] = Solutol-HS15 lipidic emulsion, aqueous with cosolvent or surfactant or cyclodextrin, read-out: Solubility, Solutol-HS15
[14] = organic solvent or mixture, ethanol, 20 mM stock solutions, read-out: Solubility, Ethanol
[15] = Homo sapiens, A2780, solutol solutions
[16] = organic solvent or mixture, DMSO, 20 mM stock solutions, read-out: Solubility, DMSO
[17] = Homo sapiens, HT-29, ethanol solutions
[18] = Homo sapiens, A2780cisR, ethanol solutions
[19] = Homo sapiens, A2780, ethanol solutions

solubility [6, 13] | solubility [6, 14] | solubility [6, 16] | Structure (SMILES) | IC50 [1, 11] | IC50 ([2]; solutol solutions) | IC50 [5, 12] | IC50 [7, 15] | IC50 ([1]; ethanol solutions) | IC50 ([2]; ethanol solutions) | IC50 ([5]; ethanol solutions) | Solubility, Ethanol ([6]; ethanol, 20 mM stock solutions) | IC50 ([7]; ethanol solutions) | also measured
> 4 mM | < 20 mM |  | CCCCCCCCCCCCCCCCC(O)CNCCCC (stereo not drawn) [Compound A2, 1-Butyl-amino-octadecan-2-ol] | 16 ± 2 µM | 32 ± 4 µM | 12 ± 3 µM | 11 ± 3 µM |  |  |  |  |  | inhibition at 6 µM ([3]; Homo sapiens, 6 μM): ~10%; inhibition of SPM formation ([4]; 6 μM): no significant effect; solubility in ethanol and DMSO ([6]; 20 mM stock solutions): only soluble in DMSO; Solubility, DMSO ([6]; DMSO, 20 mM stock solutions): ✓*; Caspase-3 increase (Caspase-3; 20 μM): 3 fold
 |  |  | CCCCCCCCCCCCCCCCNCC(O)CCCCCCCCC (stereo not drawn) [Compound A12, 1-hexadecyl-amino-undecan-2-ol] |  |  |  |  | > 100 µM | > 100 µM | > 100 µM | ✓* | > 100 µM | 
 |  |  | CCCCCCCCCCCCNCC(O)CCCCCCCCC (stereo not drawn) [Compound A10, 1-Dodecyl-amino-undecan-2-ol] |  |  |  |  | 8 ± 2 µM | 10 ± 2 µM | 4 ± 1 µM | ✓* | 4 ± 1 µM | effect on SPM formation ([3]; 0.5 μM): about 22%; SPM formation related to the control (in words) [8]: reduction in SPM formation; effect on SPM formation ([4]; 0.5 μM): ~8%; anticancer activity (in words) [9]: most active; also recorded: highest activity; Caspase-3 increase (Caspase-3; 10 μM): 7 fold; SPM formation related to the control (in words) [10]: reduction in SPM formation
 |  |  | CCCCCCCCCCCCCCNCC(O)CCCCCCCCC (stereo not drawn) [Compound A11, 1-tetradecyl-amino-undecan-2-ol] |  |  |  |  | 30 ± 7 µM | 33 ± 6 µM | 9 ± 3 µM | ✓* | 9 ± 2 µM | 
> 4 mM | < 20 mM | < 20 mM | CCCCCCCCCCCCCCCCC(O)CNCCCCCC (stereo not drawn) [Compound A3, 1-Hexyl-amino-octadecan-2-ol] | 19 ± 5 µM | 18 ± 2 µM | 9 ± 1 µM | 11 ± 1 µM |  |  |  |  |  | 
> 4 mM | < 20 mM | < 20 mM | CCCCCCCCCCCCCCCCC(O)CNCCCCCCCCCCCC (stereo not drawn) [Compound A5, 1-Dodecyl-amino-octadecan-2-ol] | > 100 µM | > 100 µM | > 100 µM | > 100 µM |  |  |  |  |  | 
 |  | < 20 mM | CCCCCCCCCC(O)CNCCCCCCCC (stereo not drawn) [Compound A9, 1-Octyl-amino-undecan-2-ol] |  |  |  |  |  | 14 ± 1 µM |  | ✓* |  | IC50 [1, 17]: 11 ± 2 µM; IC50 [5, 18]: 10 ± 1 µM; IC50 [7, 19]: 7 ± 1 µM
 | > 20 mM | > 20 mM | CCCCCCCCCC(O)CNCCCCCC (stereo not drawn) [Compound A8, 1-Hexyl-amino-undecan-2-ol] |  |  |  |  |  | 33 ± 6 µM |  |  |  | IC50 [1, 17]: 33 ± 4 µM; IC50 [5, 18]: 22 ± 3 µM; IC50 [7, 19]: 16 ± 1 µM
> 4 mM | > 20 mM | > 20 mM | CCCCCCCCCCCCCCCCC(O)CN(CC)CC (stereo not drawn) [Compound A1, 1-DEA-amino-octadecan-2-ol] | 24 ± 4 µM | 40 ± 3 µM | 21 ± 1 µM | 17 ± 4 µM |  |  |  |  |  | solubility in ethanol and DMSO ([6]; 20 mM stock solutions): good solubility in both solvents
> 4 mM | < 20 mM | < 20 mM | CCCCCCCCCCCCCCCCC(O)CNCCCCCCCC (stereo not drawn) [Compound A4, 1-Octyl-amino-octadecan-2-ol] | 15 ± 6 µM | 29 ± 4 µM | 12 ± 2 µM | 14 ± 3 µM |  |  |  |  |  | 
 |  |  | N.N.[Cl][Pt][Cl] [cis-Pt, reference compound] |  | > 100 µM |  |  | > 100 µM | > 100 µM | > 100 µM |  | 30 ± 1 µM | IC50 ([1]; solutol solutions): > 100 µM; IC50 ([5]; solutol solutions): > 100 µM; IC50 ([7]; solutol solutions): 30 ± 1 µM
